Measurements from ChEMBL document CHEMBL4014323, “Hydroxy-Substituted Heteroarylpiperazines: Novel Scaffolds for β-Arrestin-Biased D2R Agonists” (J Med Chem, 2017).

Assays:
D(2) dopamine receptor [1] = molecular target: T1, D(2) dopamine receptor (Homo sapiens, UniProt P14416); assay: biochemical; assay type: cell-based
Description: Displacement of [3H]spiperone from human D2LR expressed in CHO cell membranes by radioligand binding assay

D(2) dopamine receptor [2] = molecular target: T1, D(2) dopamine receptor; assay: biochemical; assay type: cell-based; remark: listed apart in the source
Description: Displacement of [3H]spiperone from human D2SR expressed in CHO cell membranes by radioligand binding assay

D(4) dopamine receptor = molecular target: T2, D(4) dopamine receptor (Homo sapiens, UniProt P21917); assay: biochemical; assay type: cell-based
T2 sequence (P21917 whole entry): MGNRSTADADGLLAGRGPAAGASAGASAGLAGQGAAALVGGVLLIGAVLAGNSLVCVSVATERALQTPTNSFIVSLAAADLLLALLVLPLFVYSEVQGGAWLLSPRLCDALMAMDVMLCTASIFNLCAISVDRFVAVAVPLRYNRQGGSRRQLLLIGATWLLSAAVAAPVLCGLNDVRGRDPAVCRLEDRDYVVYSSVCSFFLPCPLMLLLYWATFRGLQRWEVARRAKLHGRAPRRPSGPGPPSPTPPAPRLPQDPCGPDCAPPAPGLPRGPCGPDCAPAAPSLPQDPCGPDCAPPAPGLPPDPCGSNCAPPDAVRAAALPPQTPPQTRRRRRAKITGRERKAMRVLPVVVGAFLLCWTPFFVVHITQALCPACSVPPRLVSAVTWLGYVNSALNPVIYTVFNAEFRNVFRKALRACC
Description: Displacement of [3H]spiperone from human D4R expressed in CHO cell membranes by radioligand binding assay

HEK293 = assay: Cytotoxicity against HEK293 cells; assay type: cell-based; settings: human
D(1A) dopamine receptor = D(1A) dopamine receptor (Homo sapiens, UniProt P21728); assay: biochemical
Description: Displacement of [3H]SCH23390 from human D1R expressed in HEK293T cell membranes by radioligand binding assay

D(1B) dopamine receptor = D(1B) dopamine receptor (Homo sapiens, UniProt P21918); assay: biochemical
Description: Displacement of [3H]SCH23390 from human D5R expressed in HEK293T cell membranes by radioligand binding assay

[3] = molecular target: 5-hydroxytryptamine receptor 2A (Homo sapiens, UniProt P28223); assay: biochemical
Description: Displacement of [3H]ketanserin from human 5-HT2AR expressed in HEK293T cell membranes by radioligand binding assay

D(2) dopamine receptor [4] = molecular target: T1, D(2) dopamine receptor; assay type: cell-based, HEK-293T
Description: Partial agonist activity at human D2SR expressed in HEK293T cells co-expressing (EA)beta-arrestin2 assessed as induction of beta-arrestin2 recruitment after 5 hrs by chemiluminescence assay

D(2) dopamine receptor [5] = molecular target: T1, D(2) dopamine receptor; assay type: functional, cell-based, HEK-293T
Description: Agonist activity at human D2S receptor expressed in HEK293T cell membranes coexpressing Galphao1 assessed as induction of nucleotide exchange preincubated for 30 mins followed by addition of [35S]GTPgammaS measured after 30 mins by [35S]GTPgammaS binding assay

D(2) dopamine receptor [6] = molecular target: T1, D(2) dopamine receptor; assay type: cell-based, HEK-293T; remark: listed apart in the source
Description: Partial agonist activity at human D2SR expressed in HEK293T cells co-expressing (EA)beta-arrestin2 and GRK2 assessed as induction of beta-arrestin2 recruitment after 5 hrs by chemiluminescence assay

Liver = assay: Metabolic stability in Sprague-Dawley rat liver microsomes at 20 uM measured after 15 mins by HPLC-based mass-spectrometry; assay type: ADME, microsome; settings: 0.25 h
[7] = Half life in Sprague-Dawley rat liver microsomes at 20 uM by HPLC analysis; assay type: ADME, microsome
[8] = Intrinsic clearance in Sprague-Dawley rat liver microsomes assessed per mg protein at 20 uM by HPLC analysis; assay type: ADME, microsome; settings: read-out: CLH
[9] = Binding affinity to microsomal protein in Sprague-Dawley rat liver microsomes after 60 mins in absence of NADPH by HPLC analysis; assay type: ADME; settings: 1 h
D(2) dopamine receptor [10] = molecular target: T1, D(2) dopamine receptor; settings: HEK-293T, at 1e-07 to 100 µM
Description: Agonist activity at human D2S receptor expressed in HEK293T cell membranes coexpressing Galphao1 assessed as induction of nucleotide exchange at 0.1 pM to 100 uM preincubated for 30 mins followed by addition of [35S]GTPgammaS measured after 30 mins by [35S]GTPgammaS binding assay relative to quinpirole

D(2) dopamine receptor [11] = molecular target: T1, D(2) dopamine receptor; assay: Agonist activity at human D2S receptor expressed in HEK293T cell membranes coexpressing Galphao1 assessed as induction of nucleotide exchange at 30 uM preincubated for 30 mins followed by addition of [35S]GTPgammaS measured after 30 mins by [35S]GTPgammaS binding assay relative to quinpirole; assay type: functional; settings: HEK-293T
[12] = Binding affinity to microsomal protein in Sprague-Dawley rat liver microsomes after 60 mins in presence of NADPH by HPLC analysis; assay type: ADME; settings: read-out: PB (converted)
[13] = molecular target: T3, Voltage-gated inwardly rectifying potassium channel KCNH2 (Homo sapiens, UniProt Q12809); assay: Inhibition of human ERG expressed in CHO cells assessed as reduction in tail current at 1 uM and -40 holding potential by automated patch-clamp assay; assay type: cell-based
hERG (KCNH2) [14] = molecular target: T4, hERG (KCNH2) (Homo sapiens, UniProt Q12809); assay: Inhibition of human ERG expressed in CHO cells assessed as tail current remaining at 10 uM and -40 holding potential by automated patch-clamp assay; assay type: cell-based; settings: CHO cells expressing human ERG, read-out: Activity
hERG (KCNH2) [15] = molecular target: T4, hERG (KCNH2); assay: Inhibition of human ERG expressed in CHO cells assessed as tail current remaining at 50 uM and -40 holding potential by automated patch-clamp assay; assay type: cell-based; settings: CHO cells expressing human ERG, read-out: Activity
[16] = molecular target: T3, Voltage-gated inwardly rectifying potassium channel KCNH2; assay: Inhibition of human ERG expressed in CHO cells assessed as reduction in tail current at -40 holding potential by automated patch-clamp assay; assay type: cell-based

D(1A) dopamine receptor, sequence (P21728 whole entry): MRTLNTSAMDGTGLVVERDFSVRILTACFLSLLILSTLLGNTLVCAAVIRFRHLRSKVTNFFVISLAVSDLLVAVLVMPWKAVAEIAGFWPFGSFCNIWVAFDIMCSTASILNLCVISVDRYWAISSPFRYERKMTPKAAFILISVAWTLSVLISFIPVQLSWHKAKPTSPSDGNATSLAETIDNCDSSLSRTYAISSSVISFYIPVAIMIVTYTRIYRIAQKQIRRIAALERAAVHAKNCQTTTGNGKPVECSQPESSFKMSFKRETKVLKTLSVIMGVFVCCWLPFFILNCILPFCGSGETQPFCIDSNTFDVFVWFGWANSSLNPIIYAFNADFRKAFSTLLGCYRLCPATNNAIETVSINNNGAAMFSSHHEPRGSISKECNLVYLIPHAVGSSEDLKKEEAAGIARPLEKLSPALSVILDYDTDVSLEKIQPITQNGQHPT
T1 sequence (P14416 whole entry): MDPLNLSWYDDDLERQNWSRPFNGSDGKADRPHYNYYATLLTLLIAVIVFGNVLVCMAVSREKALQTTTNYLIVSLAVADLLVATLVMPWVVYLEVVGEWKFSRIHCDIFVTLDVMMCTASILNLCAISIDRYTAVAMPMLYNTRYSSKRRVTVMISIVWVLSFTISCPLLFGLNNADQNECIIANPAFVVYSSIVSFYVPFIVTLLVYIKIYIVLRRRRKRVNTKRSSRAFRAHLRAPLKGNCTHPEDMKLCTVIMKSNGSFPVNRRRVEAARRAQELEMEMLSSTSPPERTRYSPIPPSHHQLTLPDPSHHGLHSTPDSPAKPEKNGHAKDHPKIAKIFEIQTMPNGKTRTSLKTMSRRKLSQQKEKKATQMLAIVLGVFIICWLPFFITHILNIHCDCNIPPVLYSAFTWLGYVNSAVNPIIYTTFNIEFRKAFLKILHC
D(1B) dopamine receptor, sequence (P21918 whole entry): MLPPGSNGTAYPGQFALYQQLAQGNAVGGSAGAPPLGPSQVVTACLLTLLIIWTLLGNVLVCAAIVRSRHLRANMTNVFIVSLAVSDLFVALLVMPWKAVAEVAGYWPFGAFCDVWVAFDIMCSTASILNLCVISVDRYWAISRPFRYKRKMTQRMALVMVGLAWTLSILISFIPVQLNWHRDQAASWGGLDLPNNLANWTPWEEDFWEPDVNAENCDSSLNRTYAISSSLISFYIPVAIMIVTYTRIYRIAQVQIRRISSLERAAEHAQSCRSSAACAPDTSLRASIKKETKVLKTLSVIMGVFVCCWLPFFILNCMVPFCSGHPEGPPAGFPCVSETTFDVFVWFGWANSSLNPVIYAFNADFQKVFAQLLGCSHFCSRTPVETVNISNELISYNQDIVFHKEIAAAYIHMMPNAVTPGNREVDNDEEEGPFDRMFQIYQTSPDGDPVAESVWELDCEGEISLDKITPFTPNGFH
5-hydroxytryptamine receptor 2A, sequence (P28223 whole entry): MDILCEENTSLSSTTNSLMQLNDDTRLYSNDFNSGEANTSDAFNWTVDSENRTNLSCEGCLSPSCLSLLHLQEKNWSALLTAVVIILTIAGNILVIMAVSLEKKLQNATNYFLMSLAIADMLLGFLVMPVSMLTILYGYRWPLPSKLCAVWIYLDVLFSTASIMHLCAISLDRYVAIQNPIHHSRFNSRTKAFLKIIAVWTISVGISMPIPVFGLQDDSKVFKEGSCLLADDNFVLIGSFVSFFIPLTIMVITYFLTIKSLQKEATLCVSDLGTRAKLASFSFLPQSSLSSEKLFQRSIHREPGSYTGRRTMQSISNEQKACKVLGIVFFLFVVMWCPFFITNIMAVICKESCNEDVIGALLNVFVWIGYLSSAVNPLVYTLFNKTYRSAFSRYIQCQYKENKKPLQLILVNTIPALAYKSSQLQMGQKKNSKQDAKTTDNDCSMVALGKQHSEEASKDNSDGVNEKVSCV
T3 sequence (Q12809 whole entry): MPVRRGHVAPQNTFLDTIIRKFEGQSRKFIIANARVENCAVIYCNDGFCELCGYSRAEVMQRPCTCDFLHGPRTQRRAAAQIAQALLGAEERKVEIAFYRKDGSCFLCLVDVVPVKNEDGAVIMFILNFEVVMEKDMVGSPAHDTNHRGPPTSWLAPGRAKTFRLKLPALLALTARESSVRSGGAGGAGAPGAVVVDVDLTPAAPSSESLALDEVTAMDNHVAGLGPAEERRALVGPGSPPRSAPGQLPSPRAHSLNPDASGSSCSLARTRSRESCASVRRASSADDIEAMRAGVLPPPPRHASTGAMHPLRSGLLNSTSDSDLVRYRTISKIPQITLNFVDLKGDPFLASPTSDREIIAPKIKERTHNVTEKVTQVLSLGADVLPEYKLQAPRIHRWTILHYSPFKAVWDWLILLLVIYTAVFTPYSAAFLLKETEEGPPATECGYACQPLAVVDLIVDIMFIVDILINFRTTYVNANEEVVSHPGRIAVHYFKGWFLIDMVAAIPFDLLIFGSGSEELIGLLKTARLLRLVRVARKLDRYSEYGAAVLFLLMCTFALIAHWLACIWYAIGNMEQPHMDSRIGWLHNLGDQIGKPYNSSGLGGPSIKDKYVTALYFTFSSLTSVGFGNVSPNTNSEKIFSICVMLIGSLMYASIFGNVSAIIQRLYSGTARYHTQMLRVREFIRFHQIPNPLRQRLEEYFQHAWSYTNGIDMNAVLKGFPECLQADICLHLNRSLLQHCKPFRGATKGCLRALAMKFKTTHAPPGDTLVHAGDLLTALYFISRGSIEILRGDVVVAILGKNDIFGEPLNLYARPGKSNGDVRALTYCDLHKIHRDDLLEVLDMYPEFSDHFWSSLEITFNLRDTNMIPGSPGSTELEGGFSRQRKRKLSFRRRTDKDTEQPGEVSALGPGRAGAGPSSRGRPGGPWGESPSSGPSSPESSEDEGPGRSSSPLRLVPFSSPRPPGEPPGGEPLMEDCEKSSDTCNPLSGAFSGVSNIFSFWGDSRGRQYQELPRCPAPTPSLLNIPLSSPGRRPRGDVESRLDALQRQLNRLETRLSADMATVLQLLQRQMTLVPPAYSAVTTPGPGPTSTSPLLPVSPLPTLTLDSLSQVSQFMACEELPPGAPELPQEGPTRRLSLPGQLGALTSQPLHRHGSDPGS
T4 sequence (Q12809 whole entry): as above

SMILES | Ki (D(2) dopamine receptor [1]) [nM] | Ki (D(2) dopamine receptor [2]) [nM] | Ki (D(4) dopamine receptor) [nM] | Activity (HEK293) | Ki (D(1A) dopamine receptor) [nM] | Ki (D(1B) dopamine receptor) [nM] | Ki [3] [nM] | EC50 (D(2) dopamine receptor [4]) [nM] | EC50 (D(2) dopamine receptor [5]) [nM] | EC50 (D(2) dopamine receptor [6]) [nM] | Emax (D(2) dopamine receptor [10]) [%] | other results
O=C1CCc2ccc(OCCCCN3CCN(c4ccc(O)c5ncccc45)CC3)cc2N1 | 3.4 | 1.5 | 94 | Non-Toxic | 1500 | 3400 | 39 |  |  |  |  | 
O=c1ccc2c(N3CCCN(CCCCOc4ccn5nccc5c4)CC3)ccc(O)c2[nH]1 | 78 | 46 | 190 | Non-Toxic | 13000 | > 20000 | 9000 | 370 | 90 | 250 | 56 | Stability (Liver): Unstable; half-life at 20 µM [7]: 51 min; microsomal CLint at 20 µM [8]: 27 µL/min/mg; PB [9]: Not Active
O=C1CCc2ccc(OCCCCN3CCN(c4ccc(O)c5oc(=O)ccc45)CC3)cc2N1 | 4.8 | 2 | 870 | Non-Toxic | > 20000 | > 20000 | > 20000 |  |  |  |  | 
CCCCn1cc(CCCOc2ccc(C(=O)NCCCCN3CCCN(c4ccc(O)c5[nH]c(=O)ccc45)CC3)cc2OC)nn1 | 200 | 220 | 2100 | Non-Toxic | 4000 | > 20000 | 1500 | 1600 |  |  |  | 
O=C1COc2c(N3CCN(CCCCOc4ccn5nccc5c4)CC3)ccc(O)c2N1 | 2 | 0.86 | 4.8 | Non-Toxic | 2300 | 16000 | 1300 | 62 |  |  |  | 
CCCN[C@H]1CCc2nc(N)sc2C1 |  |  |  |  |  |  |  |  |  |  | 102 | 
O=c1ccc2c(N3CCN(CCCCOc4ccn5nccc5c4)CC3)ccc(O)c2o1 | 40 | 19 | 270 | Non-Toxic | > 20000 | > 20000 | 2800 |  |  |  |  | 
O=C1CCc2ccc(OCCCCN3CCCN(c4ccc(O)c5c4OCC(=O)N5)CC3)cc2N1 | 1.6 | 1.6 | 60 | Non-Toxic | 2700 | 15000 | 2000 | 470 | 78 | 630 | 26 | 
CCCN(CCC)CCc1cccc2c1CC(=O)N2 [ROPINIROLE] |  |  |  |  |  |  |  | 89 | 330 | 30 | 92 | 
Oc1ccc(N2CCN(CCCCOc3ccn4nccc4c3)CC2)c2c1OCCO2 | 110 | 68 | 160 | Non-Toxic | 5300 | 19000 | 480 |  |  |  |  | 
O=c1ccc2c(N3CCN(CCCCOc4ccn5nccc5c4)CC3)ccc(O)c2[nH]1 |  |  | 31 | Non-Toxic | 4700 | 13000 | 3600 |  |  |  |  | 
O=C1CCc2ccc(OCCCCN3CCN(c4ccc(O)c5[nH]c(=O)ccc45)CC3)cc2N1 | 0.89 | 1 | 66 | Non-Toxic | 5400 | 9300 | 2200 | 93 |  |  |  | 
O=C1CCc2ccc(OCCCCN3CCN(c4ccc(O)c5c4OCC(=O)N5)CC3)cc2N1 | 0.87 | 0.67 | 8.3 | Non-Toxic | 12000 | 4200 | 430 | 92 |  |  |  | 
Oc1ccc(N2CCN(CCCCOc3ccn4nccc4c3)CC2)c2cccnc12 | 33 | 25 | 55 | Non-Toxic | 1100 | 5800 | 200 |  |  |  |  | 
O=C1CCc2ccc(OCCCCN3CCCN(c4ccc(O)c5oc(=O)ccc45)CC3)cc2N1 | 100 | 37 | 5000 | Non-Toxic | > 20000 | > 20000 | 2300 | 220 | > 5000 | 130 |  | Emax (D(2) dopamine receptor [11]): 36%
O=C1CCc2ccc(OCCCCN3CCN(c4ccc(O)c5c4OCCO5)CC3)cc2N1 | 2.9 | 2.2 | 300 | Non-Toxic | 4500 | 16000 | 160 |  |  |  |  | 
O=C1CCc2ccc(OCCCCN3CCCN(c4ccc(O)c5[nH]c(=O)ccc45)CC3)cc2N1 | 1.6 | 0.81 | 75 | Non-Toxic | 11000 | > 20000 | 3400 | 190 | 67 | 200 | 55 | half-life at 20 µM [7]: 130 min; microsomal CLint at 20 µM [8]: 11 µL/min/mg; fraction unbound at 1 h [12]: 0.73; PB [9]: Not Active; inhibition (INH) [13]: Not Active; activity at 10 µM (hERG (KCNH2) [14]): 71.7%; activity at 50 µM (hERG (KCNH2) [15]): 21.5%; IC50 [16]: 19700 nM; inhibition (INH) ([16]; human): Dose-dependent effect
CCCN(CCc1cccs1)[C@H]1CCc2c(O)cccc2C1 [ROTIGOTINE] |  |  |  |  |  |  |  | 4.1 | 3.2 | 4.4 | 91 | Stability (Liver): Unstable; half-life at 20 µM [7]: 5.8 min; microsomal CLint at 20 µM [8]: 240 µL/min/mg
CCCCn1cc(CCCOc2ccc(C(=O)NCCCN3CCCN(c4ccc(O)c5[nH]c(=O)ccc45)CC3)cc2OC)nn1 | 350 | 440 | 3200 | Non-Toxic | 17000 | > 20000 | 4200 | 680 |  |  |  | 
